Like-named read-outs stand apart in the source and are kept apart here.
How the values were obtained:
[1] = system: surrogate cells (BL21(DE3) E. coli) expressing N51I+C59R+S108N+I164L quadruple mutant PfDHFR; experiment: Bacterial surrogate growth, cells expressing quadruple mutant PfDHFR; format: cell-based, Escherichia coli; settings: 100 µM BT1, M9 minimal medium, trimethoprim
[2] = system: surrogate cells (BL21(DE3) E. coli) expressing wild-type PfDHFR; experiment: Bacterial surrogate growth, cells expressing wild-type PfDHFR; format: cell-based, Escherichia coli; settings: 100 µM BT1, M9 minimal medium, trimethoprim
[3] = system: P. falciparum K1CB1 (NRNI); experiment: microbe, parasite or virus in culture; format: cell-based; settings: Plasmodium falciparum, read-out: IC50 P. falciparum K1CB1 (NRNI)
[4] = system: P. falciparum CSL-2 (NRNL); experiment: microbe, parasite or virus in culture; format: cell-based; settings: Plasmodium falciparum, read-out: IC50 P. falciparum CSL-2 (NRNL)
[5] = system: P. falciparum TM4/8.2 (NCSI); experiment: microbe, parasite or virus in culture; format: cell-based; settings: Plasmodium falciparum, read-out: IC50 P. falciparum TM4/8.2 (NCSI)
[6] = system: P. falciparum V1/S (IRNL); experiment: microbe, parasite or virus in culture; format: cell-based; settings: Plasmodium falciparum, read-out: IC50 P. falciparum V1/S (IRNL)
P. falciparum W2 (IRNI) = experiment: microbe, parasite or virus in culture; format: cell-based; settings: Plasmodium falciparum, W2, read-out: IC50 P. falciparum W2 (IRNI)
in vitro = settings: African green monkey
[7] = system: wild-type and Pyr-resistant mutant P. falciparum; experiment: microbe, parasite or virus in culture; format: cell-based; settings: Plasmodium falciparum, read-out: IC50 against both wild-type and Pyr-resistant mutant P. falciparum
hDHFR = target: T1, hDHFR (Homo sapiens, UniProt P00374); settings: read-out: Ki hDHFR
T1 sequence (P00374 1-187): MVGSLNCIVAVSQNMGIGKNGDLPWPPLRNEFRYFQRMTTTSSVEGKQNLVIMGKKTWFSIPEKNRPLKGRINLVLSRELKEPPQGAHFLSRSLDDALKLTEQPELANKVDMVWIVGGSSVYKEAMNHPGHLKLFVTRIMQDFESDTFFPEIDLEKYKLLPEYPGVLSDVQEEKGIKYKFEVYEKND

Vero cells = system: Vero cells; parameters: method as in PMID 11881993; settings: IC50 against Vero cells; read-out: cytotoxicity Vero cells; cited from earlier work
[8] = system: P. falciparum V1/S (IRNL); settings: ± SD; cited from earlier work

Structure (SMILES) | growth inhibition of surrogate cells [1] | growth inhibition of surrogate cells [2] | IC50 [3] [nM] | IC50 [4] [nM] | IC50 [5] [nM] | IC50 [6] [nM] | IC50 (P. falciparum W2 (IRNI)) [nM] | IC50 (in vitro) [nM] | IC50 [7] [nM] | Ki (hDHFR) [nM] | IC50 (Vero cells) [nM] | IC50 [8] [nM]
CCc1nc(N)nc(N)c1OCCCOc1cccc(-c2c(N)nc(N)nc2CC)c1 [BT1] | completely inhibitory | completely inhibitory | 220 ± 60 | 510 ± 80 | 290 ± 50 | 1720 ± 690 | 250 ± 50 | 5940 ± 650 | < 5000 | 22.5 ± 2.9 | – | –
CCc1nc(N)nc(N)c1OCCCOc1ccc(-c2c(N)nc(N)nc2CC)cc1 [BT2S] | – | – | 1840 ± 310 | 3950 ± 360 | 63 ± 14 | 4400 ± 710 | 2350 ± 100 | 6300 ± 1500 | – | 20.2 ± 3.3 | – | –
CCc1nc(N)nc(N)c1OCCCOc1ccc(-c2c(N)nc(N)nc2CC)cc1 [BT2] | – | – | – | – | – | – | – | – | – | 18.1 ± 1.3 | – | –
CCc1nc(N)nc(N)c1-c1ccc(OCCCOc2ccc(-c3c(N)nc(N)nc3CC)cc2)cc1 [BT3S] | – | – | 330 ± 38 | 310 ± 20 | 35 ± 3.3 | 330 ± 23 | 300 ± 30 | 2530 ± 440 | – | 33.6 ± 10.6 | – | –
CCc1nc(N)nc(N)c1-c1cccc(Cl)c1 [P30] | – | – | – | – | – | – | – | – | – | – | 7000 | –
Cc1nc(N)nc(N)c1OCCCOc1cc(Cl)c(Cl)cc1Cl [P65, reference compound] | – | – | 1920 ± 530 | 4400 ± 2100 | – | – | 2270 ± 650 | 4030 ± 410 | – | 47.6 ± 4 | – | –
CCc1nc(N)nc(N)c1-c1ccc(Cl)cc1 [Pyr, pyrimethamine, reference compound] | – | – | – | – | – | – | – | > 100000 | – | – | – | > 100000

Source: PMC6295868, “Hybrid Inhibitors of Malarial Dihydrofolate Reductase with Dual Binding Modes That Can Forestall Resistance” (ACS Medicinal Chemistry Letters, 2018)
